Entries after “also recorded” stand apart in the source; their conditions may differ. Where two headings read alike, the source gives them in different places.
How the values were obtained:
[1] = test system: HEp2 cells; experiment: Cell viability of HEp2 cells (CellTiter-Glo); assay type: cell-based, human; conditions: HEp-2 cells
Method: Spun supernatants were collected to infect HEp2 cells for 24 h for immuno-detection of RSV. TG doses used to prime HEp2 cells were non-toxic. 30 min TG treated cells were rinsed, cultured overnight and subjected to cell viability assays (CellTiter-Glo® Luminescent Cell Viability Assay kit, Promega. Results are shown in FIG. 22.

[2] = test system: RSV (A2 strain, ATCC VR-1540); experiment: RSV production from infected HEp2 cells (immuno-detection / RT-qPCR); assay type: cell-based, human respiratory syncytial virus
[3] = test system: human coronavirus OC43; assay type: cell-based; conditions: MRC-5 cells
[4] = test system: hCoV OC43; experiment: hCoV OC43 replication in A549 cells (RT-qPCR); assay type: cell-based, human coronavirus OC43
[5] = test system: RSV; experiment: RSV replication in A549 cells (pfu/ml by immunostaining); assay type: cell-based, human respiratory syncytial virus; conditions: 30 min TG priming, 72 h infection
Method: FIG. 37—Pre- and post-infection priming with TG 24 h inhibited RSV replication. […] (A) In pre-infection, cells primed with TG or control DMSO, washed with PBS, cultured in fresh media for 24 h and infected with RSV at 0.1 MOI for 2 h followed by media replacement with fresh DMEM containing 2% FCS. (B) In post-infection, cells were first infected similarly for 24 h, then primed with TG or DMSO for 30 min, washed with PBS and replaced with fresh media. In both treatment groups (A and B), cells were infected for a total period of 72 h, after which spun supernatants were used to determine progeny virus output (pfu/ml) on HEp2 cells by immunostaining with mouse anti-RSV (F27) antibody. HEp2 cells were more permissive to RSV replication than A549 cells. (C) Comparison of TG and ribavirin (Riba) in the inhibition of RSV replication. HEp-2 cells were primed with TG, Riba or control DMSO as indicated for 30 min, rinsed with PBS and infected with RSV. Riba was continuously present during infection. Four days post-infection, media were sampled for the detection of viral M-gene RNA by one-step reverse transcription-qPCR. Unless otherwise indicated, significance (based on one-way ANOVA with Tukey's multiple comparison test) is relative to DMSO control.

[6] = test system: RIG-I, OAS1 and PKR; assay type: cell-based, pig; conditions: NPTr cells (TG also NHBE cells and myoblasts); priming before or during infection
[7] = test system: RSV; conditions: human bronchial epithelial cell line; TG 0.1 uM for 24 h before infection; cited from earlier work
[8] = test system: SARS-CoV-2; experiment: SARS-CoV-2 replication in NHBE cells (RT-qPCR of media); assay type: cell-based
[9] = test system: USSR H1N1 virus; assay type: cell-based, influenza A virus (A/USSR/77); conditions: PTECs; 0.1 μM TG for 30 min
[10] = test system: USSR H1N1 virus; assay type: cell-based, influenza A virus (A/USSR/77)
[11] = test system: USSR H1N1 virus; experiment: USSR H1N1 M-gene RNA in media of NPTr cells primed with stored or oil-mixed TG (RT-qPCR); assay type: cell-based, influenza A virus (A/USSR/77); conditions: NPTr cells primed at 0.5 μM TG
[12] = test system: USSR H1N1 virus; assay type: cell-based, influenza A virus (A/USSR/77); remark: listed apart in the source
[13] = test system: influenza A virus; conditions: MDCK cells; 0.001 μM TG over 48 h of infection; cited from earlier work
[14] = test system: USSR H1N1 virus; experiment: USSR H1N1 replication in A549 cells (M-gene RNA, RT-qPCR); assay type: cell-based, influenza A virus (A/USSR/77)
[15] = test system: SARS-CoV-2; experiment: SARS-CoV-2 replication in Vero E6 cells (RT-qPCR of media); assay type: cell-based
[16] = test system: NHBE cells
[17] = test system: pdm H1N1 virus; assay type: cell-based, influenza A virus (A/California/07/2009); conditions: NPTr cells; 0.5 μM TG 30 min; […]
[18] = test system: NPTr cells
[19] = Tolerability of TG given to mice by oral gavage; conditions: 1 mg/kg
[20] = test system: PR8 H1N1 virus (A/Puerto Rico/8/1934); assay type: in vivo, BALB/c mice
[21] = test system: extracellular Ca^2+ influx; experiment: Intracellular Ca2+ monitoring assay (Fluo-8) in NPTr cells; assay type: cell-based, pig; conditions: non-toxic doses (CPA up to 5 μM; TG 10 min)
[22] = test system: SARS-CoV-2; experiment: SARS-CoV-2 replication in Calu-3 cells (RT-qPCR of media); assay type: cell-based
[23] = test system: USSR H1N1 virus; assay type: cell-based, influenza A virus (A/USSR/77); remark: listed apart in the source
[24] = test system: 2009 pandemic (pdm) H1N1 virus; experiment: 2009 pandemic (pdm) H1N1 virus replication in Calu-3 cells (M-gene RNA, RT-qPCR); assay type: cell-based, influenza A virus
[25] = 30 min priming at doses used for infection studies
[26] = NPTr cells, 30 min priming, […]

C/C=C(/C)C(=O)O[C@H]1C(C)=C2[C@H]([C@@H]1OC(=O)CCCCCCC)[C@@](C)(OC(C)=O)C[C@H](OC(=O)CCC)[C@@]1(O)[C@H]2OC(=O)[C@@]1(C)O [TG, thapsigargin]
CC50 [1]: 90 µM | RSV replication, priming 24 h before or 24 h post-infection ([2]; HEp2 cells, 30 min TG priming, 72 h infection): strongly inhibited RSV replication | RSV production, TG priming 48 h post-infection ([2]; HEp2 cells, 30 min priming): rapidly effective in blocking virus production at 48 h post-infection | duration of sustained anti-viral effect on RSV ([2]; HEp2 cells, 30 min priming): over 48 h | Selectivity index ([2]; HEp-2 cells, 3 d infection period): 1346.499 | IC50 ([2]; HEp-2 cells, RSV, 3 d infection period): 0.0668 µM | RSV progeny virus production, viral M-gene RNA ([2]; HEp-2 cells, TG 30 min priming, Riba continuously present, four days post-infection): superior to the continuous presence of ribavirin; also recorded: significantly inhibited | hCoV OC43 replication / progeny production ([3]; TG 0.05 or 0.5 μM 30 min pre-infection, HC pre-infection or continuous): dramatic dose-responsive reduction in coronavirus replication | cell loss and cytopathic effects of infected cells ([3]; TG-primed): limited cell loss and little morphological change | hCoV OC43, separate infection and co-infection with USSR H1N1 [4]: blocked | blocking of hCoV OC43 replication, comparison with RDV ([4]; A549 cells, TG 30 min priming vs continuous RDV, […]): superior to remdesivir (RDV) | RSV replication, priming 24 h before or 24 h post-infection [5]: strongly inhibited RSV replication | expression of type I IFN associated genes in response to infection [6]: consistently increased the expression of type I IFN associated genes | RSV replication by RT-PCR [7]: did not show reduction in virus replication | SARS-CoV-2 replication [8]: highly inhibitory | duration of the antiviral state after TG exposure [9]: at least 24 h | progeny virus output vs DMSO control [10]: marked reduction in virus output | virus production, TG before vs 6 h after infection ([10]; myoblasts, 0.5 μM TG 30 min, […]): comparable reduction in virus production | duration of the antiviral state after TG exposure ([10]; myoblasts, 1.0 μM TG for 1 h): at least 24 h | antiviral function after mixing TG-DMSO stock with olive oil or sesame oil ([11]; 1:1 volume ratio, 24 h at room temperature): did not diminish TG antiviral function | antiviral activity after incubation of TG stock solution on its own ([11]; 24 h at RT, relative to freshly thawed TG): some reduction in antiviral activity | progeny virus output vs DMSO control [12]: marked reduction in virus output | progeny virus output ([12]; NHBE cells, 5 nM TG for 30 min): dramatic reduction in progeny virus output | virus production, TG before vs 6 h after infection ([12]; NHBE cells, 0.01 μM TG 30 min, […]): comparable reduction in virus production | Selectivity index (CC50/IC50) ([12]; NHBE cells, 30 min priming, […]): 8572.89 | IC50 ([12]; NHBE cells, 30 min priming, […], read-out: USSR virus inhibitory concentration IC50): 0.00391 µM | progeny influenza virus output [13]: increase progeny influenza virus output | USSR H1N1, separate infection and co-infection with hCoV OC43 [14]: blocked | blocking of USSR H1N1 replication, comparison with RDV ([14]; A549 cells, TG 30 min priming vs continuous RDV): superior to remdesivir (RDV) | SARS-CoV-2 replication [15]: lack of effectiveness | cell viability after priming [16, 25]: no cytotoxic effect on cell viability | cell viability on continuous exposure ([16]; continuous 5 nM TG for 24 h): no reduction in cell viability | CC50 ([16]; read-out: cellular cytotoxicity CC50, 30 min priming, viability after 24 h): 33.5 µM | virus production, TG before vs 6 h after infection [17]: comparable reduction in virus production | cell viability after priming [18, 25]: no cytotoxic effect on cell viability | CC50 ([18]; 30 min priming, viability after 24 h): 56.6 µM | cell viability of primed cells, infected or uninfected ([18]; primed once with 0.5 μM TG for 30 min, over 20 h): more viable than DMSO control cells | clinical adverse effects [19]: no detectable clinical adverse effects | body weight of surviving treated mice ([20]; TG 30 ng by gavage daily): progressive weight gain from 9 dpi | PR8 virus loads in lungs vs control mice ([20]; TG 30 ng by gavage daily, […]): significantly lower | gross lung pathology ([20]; TG 30 ng by gavage daily, […]): more localised to the vicinity of virus entry site | survival of infected mice ([20]; mouse, in vivo): 40% | extracellular Ca^2+ influx [21]: modest Ca^2+ influx | SARS-CoV-2, separate infection and co-infection with pdm 2009 H1N1 [22]: blocked | SARS-CoV-2 replication, post-infection priming [22]: just as effective in virus inhibition as pre-infection TG priming | SARS-CoV-2 replication ([22]; Calu-3 cells, […], HC primed and continuously present): highly inhibitory | progeny virus output vs DMSO control [23]: marked reduction in virus output | virus reduction ([23]; NPTr cells pre-primed with 0.1 μM TG for 30 min): 82% | virus reduction ([23]; NPTr cells pre-primed with 0.5 μM TG for 30 min): 93% | duration of the antiviral state after TG exposure ([23]; NPTr cells, 0.5 μM TG for 30 min): at least 24 h | IC50 [23, 26]: 0.00712 µM | Selectivity index (CC50/IC50) [23, 26]: 7952.21 | pdm 2009 H1N1, separate infection and co-infection with SARS-CoV-2 [24]: blocked

Source: patent US20240116889A1, “ANTIVIRAL COMPOUNDS AND METHODS” (priority 2019, published 2024)
